According to patent publication US10777299B2, “Systems and methods for matching oncology signatures” (THE TRUSTEES OF COLUMBIA UNIVERSITY IN THE CITY OF NEW YORK, priority 2015, dated 2020):

Tests used:
[1] = test system: patient-0 checkpoint protein activity; assay: Xenograft transcriptome analysis after drug administration, patient-0 checkpoint; format: in vivo, mice; conditions: xenograft transcriptome 3 hours after 3rd drug administration
[2] = test system: H-STS xenograft; assay: H-STS xenograft tumor growth, follow-up studies at Columbia; format: in vivo, mice; conditions: mean of 8 animals
Procedure: (§1) In vivo validation in NOD-SCIDS mice xenografts established by subcutaneous injection of H-STS cells was first conducted at Champions Oncology and then independently confirmed in the mouse hospital facility at Columbia University. Mice were enrolled in treatment arms when tumor size reached 250 mm^3 and were treated for 25 days. Tumor size was measured twice weekly by digital caliper, see methods.
This is in line with the poor effect of Bardoxolone methyl, I-BET151 and Bortezomib on xenograft tumor growth, and the strong abrogation elicited by Entinostat (FIGS. 10B and 10C). In summary, while the effect of the Entinostat, I-BET151 and Bardoxolone methyl on the reversal of patient-0 checkpoint activity inferred from the in vitro H-STS perturbation assay was confirmed in the xenograft model, only Entinostat reverted the activity of the H-STS xenograft checkpoints and abrogated tumor growth (FIG. 10).
FIG. 10A depicts enrichment of patient-0 metastasis checkpoint MRs on the protein activity signatures induced by 6 selected compounds in the H-STS cells. FIGS. 10B and 10C depict growth curves for the H-STS xenograft while treated by vehicle control, and each of the 6 selected compounds. Curves show tumor volume for individual animals (FIG. 10B) or the mean±SEM of 8 animals (FIG. 10C). FIG. 10D depicts enrichment of patient-0 metastasis checkpoint on the protein activity signatures induced by 4 selected compounds in the H-STS xenograft. FIG. 10E depicts enrichment of H-STS xenograft checkpoint on the protein activity signatures induced by 4 selected compounds in the H-STS xenograft.

[3] = test system: H-STS xenograft; assay: H-STS xenograft tumor growth, Champions Oncology (TGI, RECIST, TR); format: in vivo, mice; conditions: for % TGI: H-STS xenograft in NOD-SCIDS mice, treated 25 days; for effect on H-STS xenograft tumor growth (FIG. 4B): H-STS xenograft models; for RECIST PD/SD/PR/CR: number of mice per response class; for % TR (tumor regression): H-STS xenograft
Procedure: All test agents were formulated according to manufacturer's specifications. Beginning Day 0, tumor dimensions were measured twice weekly by digital caliper and data, including individual and mean estimated tumor volumes (Mean TV±SEM), were recorded for each group. Tumor volume was calculated using the formula: […].
At study completion, percent tumor growth inhibition (% TGI) values were calculated and reported for each treatment group (T) versus control (C) using initial (i) and final (f) tumor measurements by the formula: % TGI=[1−(Tf−Ti)/(Cf−Ci)]×100. Individual mice reporting a tumor volume >120% of the Day 0 measurement were considered to have progressive disease (PD). Individual mice with neither sufficient shrinkage nor sufficient tumor volume increases are considered to have stable disease (SD). Individual mice reporting a tumor volume ≤70% of the Day 0 measurement for two consecutive measurements over a seven day period were considered partial responders (PR). If the PR persisted until study completion, percent tumor regression (% TR) was determined using the formula: % TR=(1−Tf/Ti)×100; a mean value was calculated for the entire treatment group. Individual mice lacking palpable tumors for two consecutive measurements over a seven day period were classified as complete responders (CR). All data collected in this study were managed electronically and stored on a redundant server system.
as §1

[4] = test system: patient-0 metastasis checkpoint MRs; assay: OncoTreat: VIPER-inferred MR reversal after compound perturbation of H-STS cells, patient-0 MRs; format: cell-based, human; conditions: H-STS cell perturbation, FIG. 10A
Procedure: (§2) To assess the ability of these compounds to induce Tumor Checkpoint collapse (i.e., global inversion of patient-derived MR activity pattern), gene expression profiles were generated at 6 h and 24 h following perturbation of H-STS cells with two sub-lethal compound concentrations, the 72 h IC20 and 1/10th of that concentration in duplicate. The 24 h time point was considered more informative for long term response. These were produced by 30M SE read Illumina TruSeq profiling of RNA purified from treated cells as well as from cells treated with control media (DMSO). This ensured that the highest compound concentration can be tested that would not induce cell death processes and would thus faithfully recapitulate the compound mechanism of action (MoA) rather than the mechanisms and programs associated with cell demise. While in vivo endpoint phenotypes (e.g., tumor viability) are not effectively recapitulated in 2D cultures in vitro, compound MoA is reasonably well-recapitulated in both contexts. One aim can be to identify compounds capable of inverting MR activity signature in vitro in a relatively faithful model of the tumor regulatory context, to assess whether these compounds would have activity in vivo.
(§3) Drug signatures were analyzed with VIPER to assess the change in protein activity before and after the perturbation. Specifically, RX-GES were generated by differential expression of compound-treated vs. control-vehicle-treated cells at all time points and concentrations and analyzed with VIPER against the EP-NET interactome. This ranked all 5,602 regulatory proteins represented in the interactome from the one whose activity was most inhibited to the one whose activity was most increased following drug perturbation. An aREA analysis of patient samples that were well represented by the H-STS xenograft model was performed to assess enrichment of metastatic progression MRs in proteins whose activity was most inverted following drug perturbation. Since validation of these predictions was performed in H-STS mouse xenograft models, the analysis was limited to each NET-MET MRs that were recapitulated in the H-STS xenograft. […] Rather they allow optimal tuning of the results to available in vitro and in vivo models for optimal design of validation assays. Thus, the OncoTreat methodology uses the ability to prioritize small molecule compounds that optimally reverse a patient-specific MR activity signature.
FIG. 15 depicts the enrichment of the top 50 most activated (shown in red in the enrichment plots) and the top 50 most deactivated (shown in blue) proteins in patient 0 on the protein activity signature induced by each compound perturbation in the H-STS cell line. […] The colored bar indicates the tissue of origin for each of the evaluated tumors. […]

[5] = test system: rectal neuroendocrine tumor metastasis (NET-MET) tumor checkpoint; assay: Drug-induced VIPER-inferred protein activity signatures in H-STS cells versus NET-MET checkpoint; format: cell-based, human; conditions: H-STS cell line
Text: Drug MoA information was inferred using a NET liver metastasis-derived cell line (H-STS), which recapitulated the tumor checkpoint inferred from patient's samples (FIG. 6A).
Drug-induced VIPER-inferred protein activity signatures were obtained for a few drugs including entinostat. […] Drug MoA information was inferred using a NET liver metastasis-derived cell line (H-STS), which recapitulated the tumor checkpoint inferred from patient's samples, as shown in FIG. 6A.

[6] = test system: H-STS xenograft checkpoint MRs; assay: OncoTreat: VIPER-inferred MR reversal after compound perturbation of H-STS cells, xenograft MRs; format: cell-based, human; conditions: H-STS cell perturbation
Procedure: as §2, §3
FIG. 15 depicts the enrichment of the top 50 most activated (shown in red in the enrichment plots) and the top 50 most deactivated (shown in blue) proteins in patient 0 on the protein activity signature induced by each compound perturbation in the H-STS cell line. […] The colored bar indicates the tissue of origin for each of the evaluated tumors.

[7] = test system: H-STS xenograft checkpoint; assay: Xenograft transcriptome analysis after drug administration, H-STS xenograft checkpoint; format: in vivo, mice; conditions: xenograft transcriptome 3 hours after 3rd drug administration

CC(C)C[C@H](NC(=O)[C@H](Cc1ccccc1)NC(=O)c1cnccn1)B(O)O [Bortezomib]
inhibition of patient-0 checkpoint protein activity in xenograft (FIG. 10D) [1]: no effect
xenograft tumor growth versus vehicle control (FIG. 10C) [2]: no significant difference

O=C1NC(=O)[C@@H](c2cn3c4c(cccc24)CCC3)[C@@H]1c1c[nH]c2ccccc12 [Tivantinib]
% TGI ([3]; 50 mg (50 mg/kg/dose)): −46%
% TGI ([3]; 100 mg (text: 100 mg/kg/dose)): 28%
% TGI ([3]; 100 mg (text: 100 mg/kg/dose), listed as ARQ197): 28%
% TGI ([3]; 200 mg (text: 200 mg/kg/dose)): 43%
% TGI ([3]; 200 mg (text: 200 mg/kg/dose), listed as ARQ197): 43%

O=C(/C=C/c1cccc(S(=O)(=O)Nc2ccccc2)c1)NO [Belinostat]
reversal of patient-0 MRs (in words) [4]: no significant reversal
reverting the NET-MET tumor checkpoint (FIG. 4A) [5]: not affecting NET-MET checkpoint
reversal of xenograft MRs (in words) [6]: no significant reversal
% TGI ([3]; 20 mg (text: 20 mg/kg/dose)): 8%
% TGI ([3]; 20 mg (text: 20 mg/kg/dose), listed as PDX101): 8%
% TGI ([3]; 40 mg): −55%
effect on H-STS xenograft tumor growth (FIG. 4B) [3]: did not abrogate tumor growth
RECIST PD/SD/PR/CR ([3]; 20 mg): 3/0/0/0
RECIST PD/SD/PR/CR ([3]; 40 mg): 3/0/0/0

Nc1ccccc1NC(=O)c1ccc(CNC(=O)OCc2cccnc2)cc1 [Entinostat]
inhibition of the H-STS xenograft checkpoint in xenograft (FIG. 10E) [7]: significant inhibition
reversal of patient-0 MRs (in words) [4]: significantly abrogating
reversal of patient-0 MRs (in words) ([4]; listed as entinostat): most significant reversal
reverting the NET-MET tumor checkpoint (FIG. 4A) [5]: most potent agent
reversal of xenograft MRs (in words) [6]: significantly abrogating
reversal of xenograft MRs (in words) ([6]; listed as entinostat): most significant reversal
inhibition of patient-0 checkpoint protein activity in xenograft (FIG. 10D) [1]: strong inhibition
drug toxicity / animal deaths ([3]; 100 mg (text: 100 mg/kg/dose), one week into the test): toxic
% TGI ([3]; 25 mg (text: 25 mg/kg/dose)): 112%
% TGI ([3]; 25 mg (text: 25 mg/kg/dose), listed as MS-27-275): 112%
% TGI ([3]; 50 mg (50 mg/kg/dose)): 110%
% TGI ([3]; 50 mg (50 mg/kg/dose), listed as MS-27-275): 110%
effect on H-STS xenograft tumor growth (FIG. 4B) [3]: abrogated completely tumor growth
% TR (tumor regression) ([3]; 25 mg (text: 25 mg/kg/dose)): 68%
% TR (tumor regression) ([3]; 50 mg (50 mg/kg/dose)): 58%
% TR (tumor regression) ([3]; 100 mg (text: 100 mg/kg/dose), single surviving animal): 49%
RECIST PD/SD/PR/CR ([3]; 25 mg): 0/0/3/0
RECIST PD/SD/PR/CR ([3]; 50 mg): 0/0/3/0
RECIST PD/SD/PR/CR ([3]; 100 mg): 0/0/1/0
xenograft tumor growth versus vehicle control (FIG. 10C) [2]: complete tumor growth abrogation

COc1cc2c(cc1-c1c(C)noc1C)ncc1[nH]c(=O)n([C@H](C)c3ccccn3)c12 [I-BET151]
reversal of patient-0 MRs (in words) [4]: significantly abrogating
reversal of xenograft MRs (in words) [6]: significantly abrogating
inhibition of patient-0 checkpoint protein activity in xenograft (FIG. 10D) [1]: strong inhibition
xenograft tumor growth versus vehicle control (FIG. 10C) [2]: no significant difference
